Earlier results as cited in patent US8633181B2, “Treatment of cutaneous hemangioma” (Rutgers, The State University of New Jersey, priority 2009, dated 2014).

System: severe hemangioma of infants
Settings: systemic propranolol

CC(C)NCC(O)COc1cccc2ccccc12 (stereo not shown) [propranolol]
time to significant shrinkage of the hemangioma after initiation: about 24 hours
